Experiments:
Test in all cases: relative viability (nuclei count vs DMSO), 5 days (fraction); higher = more cells survive
[1] = compound: CCC1=CN=CN=C1N2CCN(CC2)CC3=NC4=C(N3)C=C(C=C4)C(F)(F)F + CS(=O)(=O)CCNCc1ccc(-c2ccc3ncnc(Nc4ccc(OCc5cccc(F)c5)c(Cl)c4)c3c2)o1 [Lapatinib] (partner 2 µM)
How it was run: (§1)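 Lung cancer cell lines were pin-tool dosed in 1536-well plates on the day after seeding, with either a lone drug or a fixed anchor-drug dose plus five library-drug doses (not always all listed) in √10 steps. Nuclei were counted on 4× images after 5 days. Relative viability is the ratio of treated-well to vehicle-well nuclei counts, with each value a median of duplicate plates.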

[2] = compound: CCC1=CN=CN=C1N2CCN(CC2)CC3=NC4=C(N3)C=C(C=C4)C(F)(F)F + COc1cc2c(Oc3ccc(NC(=O)C4(C(=O)Nc5ccc(F)cc5)CC4)cc3F)ccnc2cc1OCCCN1CCOCC1 [Foretinib] (partner 0.25 µM)
How it was run: as §1

[3] = compound: CCC1=CN=CN=C1N2CCN(CC2)CC3=NC4=C(N3)C=C(C=C4)C(F)(F)F + CS(=O)(=O)N1CCN(Cc2cc3nc(-c4cccc5[nH]ncc45)nc(N4CCOCC4)c3s2)CC1 [Pictilisib] (partner 1 µM)
How it was run: as §1

Mirin + Pictilisib = compound: N=C1NC(=O)/C(=C/c2ccc(O)cc2)S1 [Mirin] + CS(=O)(=O)N1CCN(Cc2cc3nc(-c4cccc5[nH]ncc45)nc(N4CCOCC4)c3s2)CC1 [Pictilisib] (partner 1 µM)
How it was run: as §1

Q: UMC-11 was tested. Which relative viability ([1]; first compound 0.04 µM) did it give?
A: 0.808

Q: And the relative viability ([1]; first compound 0.1265 µM)?
A: 0.974

Q: What about the relative viability ([1]; first compound 0.4 µM) of the same cell line?
A: 0.905

Q: What about the relative viability ([1]; first compound 1.265 µM) of the same cell line?
A: 0.719

Q: And the relative viability ([1]; first compound 4 µM)?
A: 0.977

Q: What about the relative viability ([2]; first compound 0.04 µM) of the same cell line?
A: 0.997

Q: And the relative viability ([2]; first compound 0.1265 µM)?
A: 0.932

Q: And the relative viability ([2]; first compound 0.4 µM)?
A: 1

Q: What about the relative viability ([2]; first compound 1.265 µM) of the same cell line?
A: 0.898

Q: And the relative viability ([2]; first compound 4 µM)?
A: 0.96

Q: And the relative viability ([3]; first compound 0.04 µM)?
A: 0.723

Q: What about the relative viability ([3]; first compound 0.1265 µM) of the same cell line?
A: 0.832

Q: What about the relative viability ([3]; first compound 0.4 µM) of the same cell line?
A: 0.706

Q: What about the relative viability ([3]; first compound 1.265 µM) of the same cell line?
A: 0.548

Q: What about the relative viability ([3]; first compound 4 µM) of the same cell line?
A: 0.741

Q: And the relative viability (Mirin + Pictilisib; first compound 0.25 µM)?
A: 0.798

Q: And the relative viability (Mirin + Pictilisib; first compound 0.7906 µM)?
A: 0.164

Q: And the relative viability (Mirin + Pictilisib; first compound 2.5 µM)?
A: 0.849

Q: What about the relative viability (Mirin + Pictilisib; first compound 7.906 µM) of the same cell line?
A: 0.509

Q: What about the relative viability (Mirin + Pictilisib; first compound 25 µM) of the same cell line?
A: 0.4

— the supplement of paper PMC10307832
